Laboratory results taken from ChEMBL document CHEMBL4152249, “Alkoxyphenylthiazoles with broad-spectrum activity against multidrug-resistant gram-positive bacterial pathogens” (Eur J Med Chem, 2018).
Values after ≈ are worked out from the molar mass of the structure shown.

Key:
[1] = system: Staphylococcus aureus; test: Antibacterial activity against methicillin-resistant Staphylococcus aureus 2658 RCMB after 20 hrs by broth microdilution assay; format: functional
[2] = system: Enterococcus faecalis; test: Antibacterial activity against vancomycin-resistant Enterococcus faecalis ATCC 51299 after 20 hrs by broth microdilution assay; format: functional; details: ATCC 51299, 20 h
[3] = system: Staphylococcus epidermidis; test: Bactericidal activity against methicillin-resistant Staphylococcus epidermidis NRS101 incubated for 20 hrs followed by re-plating on tryptic soy agar plates at 37 degC for 18 hrs by broth microdilution assay; format: functional
[4] = system: Staphylococcus aureus; test: Antibacterial activity against vancomycin-resistant Staphylococcus aureus VRSA12 after 20 hrs by broth microdilution assay; format: functional; details: VRSA12, 20 h
[5] = system: Listeria monocytogenes; test: Bactericidal activity against Listeria monocytogenes ATCC 19111 incubated for 20 hrs followed by re-plating on tryptic soy agar plates at 37 degC for 18 hrs by broth microdilution assay; format: functional
[6] = system: Staphylococcus epidermidis; test: Antibacterial activity against methicillin-resistant Staphylococcus epidermidis NRS101 after 20 hrs by broth microdilution assay; format: functional; details: NRS101, 20 h
[7] = system: Staphylococcus aureus; test: Antibacterial activity against methicillin-resistant Staphylococcus aureus after 20 hrs by broth microdilution assay; format: functional
[8] = system: Listeria monocytogenes; test: Antibacterial activity against Listeria monocytogenes ATCC 19111 after 20 hrs by broth microdilution assay; format: functional; details: ATCC 19111, 20 h
[9] = system: Streptococcus pneumoniae; test: Antibacterial activity against cephalosporin-resistant Streptococcus pneumoniae ATCC 51916 after 20 hrs by broth microdilution assay; format: functional; details: ATCC 51916, 20 h
[10] = system: Staphylococcus aureus; test: Bactericidal activity against vancomycin-resistant Staphylococcus aureus VRSA12 incubated for 20 hrs followed by re-plating on tryptic soy agar plates at 37 degC for 18 hrs by broth microdilution assay; format: functional
[11] = system: Enterococcus faecium; test: Bactericidal activity against vancomycin-resistant Enterococcus faecium ATCC 700221 incubated for 20 hrs followed by re-plating on tryptic soy agar plates at 37 degC for 18 hrs by broth microdilution assay; format: functional
[12] = system: Staphylococcus aureus; test: Bactericidal activity against methicillin-resistant Staphylococcus aureus NRS385 incubated for 20 hrs followed by re-plating on tryptic soy agar plates at 37 degC for 18 hrs by broth microdilution assay; format: functional
[13] = system: Enterococcus faecium; test: Antibacterial activity against vancomycin-resistant Enterococcus faecium ATCC 700221 after 20 hrs by broth microdilution assay; format: functional; details: ATCC 700221, 20 h
[14] = system: Streptococcus pneumoniae; test: Bactericidal activity against cephalosporin-resistant Streptococcus pneumoniae ATCC 51916 incubated for 20 hrs followed by re-plating on tryptic soy agar plates at 37 degC for 18 hrs by broth microdilution assay; format: functional
[15] = system: Staphylococcus aureus; test: Bactericidal activity against linezolid-resistant Staphylococcus aureus NRS119 incubated for 20 hrs followed by re-plating on tryptic soy agar plates at 37 degC for 18 hrs by broth microdilution assay; format: functional
[16] = system: Staphylococcus aureus; test: Bactericidal activity against methicillin-resistant Staphylococcus aureus NRS386 incubated for 20 hrs followed by re-plating on tryptic soy agar plates at 37 degC for 18 hrs by broth microdilution assay; format: functional
[17] = system: Staphylococcus aureus; test: Antibacterial activity against methicillin-resistant Staphylococcus aureus NRS386 after 20 hrs by broth microdilution assay; format: functional; details: NRS386, 20 h
[18] = system: Staphylococcus aureus; test: Antibacterial activity against Staphylococcus aureus after 20 hrs by broth microdilution assay; format: functional
[19] = system: Streptococcus pneumoniae; test: Antibacterial activity against methicillin-resistant Streptococcus pneumoniae ATCC 700677 after 20 hrs by broth microdilution assay; format: functional; details: ATCC 700677, 20 h
[20] = system: Staphylococcus aureus; test: Bactericidal activity against methicillin-sensitive Staphylococcus aureus NRS107 incubated for 20 hrs followed by re-plating on tryptic soy agar plates at 37 degC for 18 hrs by broth microdilution assay; format: functional
[21] = system: Streptococcus pneumoniae; test: Bactericidal activity against methicillin-resistant Streptococcus pneumoniae ATCC 700677 incubated for 20 hrs followed by re-plating on tryptic soy agar plates at 37 degC for 18 hrs by broth microdilution assay; format: functional
[22] = system: Staphylococcus aureus; test: Antibacterial activity against vancomycin-resistant Staphylococcus aureus VRSA10 after 20 hrs by broth microdilution assay; format: functional; details: VRSA10, 20 h
[23] = system: Staphylococcus aureus; test: Bactericidal activity against Staphylococcus aureus USA300 NRS384 incubated for 20 hrs followed by re-plating on tryptic soy agar plates at 37 degC for 18 hrs by broth microdilution assay; format: functional
[24] = system: Staphylococcus aureus; test: Bactericidal activity against vancomycin-resistant Staphylococcus aureus VRSA10 incubated for 20 hrs followed by re-plating on tryptic soy agar plates at 37 degC for 18 hrs by broth microdilution assay; format: functional
[25] = system: Staphylococcus aureus; test: Antibacterial activity against methicillin-resistant Staphylococcus aureus NRS385 after 20 hrs by broth microdilution assay; format: functional; details: NRS385, 20 h
[26] = system: Caco-2; test: Cytotoxicity against human Caco2 cells assessed as effect on cell viability up to 64 ug/ml after 2 hrs by MTS assay; format: cell-based; details: caco-2, 2 h
[27] = system: Enterococcus faecalis; test: Bactericidal activity against vancomycin-resistant Enterococcus faecalis ATCC 51299 incubated for 20 hrs followed by re-plating on tryptic soy agar plates at 37 degC for 18 hrs by broth microdilution assay; format: functional
[28] = system: Staphylococcus aureus; test: Bactericidal activity against Staphylococcus aureus USA400 NRS123 incubated for 20 hrs followed by re-plating on tryptic soy agar plates at 37 degC for 18 hrs by broth microdilution assay; format: functional

For CCCCCCCOc1ccc(-c2nc(C)c(-c3ccnc(NC(=N)N4CCOCC4)n3)s2)cc1, the MIC [1] was 6.25 µg/mL (≈ 12.6 µM).
CCCCCCCCOc1ccc(-c2nc(C)c(-c3ccnc(NN)n3)s2)cc1 gave an MIC [1] of 3.12 µg/mL (≈ 7.58 µM).
CCCCCCCCOc1ccc(-c2nc(C)c(-c3ccnc(NC(=N)N(C)C)n3)s2)cc1 gave an MIC [2] of 32 µg/mL (≈ 68.6 µM), an MBC [3] of 8 µg/mL (≈ 17.1 µM) and an MIC [4] of 16 µg/mL (≈ 34.3 µM). For the same molecule, the MBC [5] was 8 µg/mL (≈ 17.1 µM), the MIC [6] was 4 µg/mL (≈ 8.57 µM) and the MIC [7] was 8 to 16 µg/mL (≈ 17.1 to 34.3 µM). It also gave an MIC [8] of 4 µg/mL (≈ 8.57 µM), an MIC [9] of 16 µg/mL (≈ 34.3 µM) and an MBC [10] of 16 µg/mL (≈ 34.3 µM). It also gave an MBC [11] of 8 µg/mL (≈ 17.1 µM), an MBC [12] of 16 µg/mL (≈ 34.3 µM) and an MIC [13] of 8 µg/mL (≈ 17.1 µM). For the same molecule, the MIC [1] was 1.56 µg/mL (≈ 3.34 µM), the MBC [14] was 16 µg/mL (≈ 34.3 µM) and the MBC [15] was 16 µg/mL (≈ 34.3 µM). It also gave an MBC [16] of 16 µg/mL (≈ 34.3 µM), an MIC [17] of 16 µg/mL (≈ 34.3 µM) and an MIC [18] of 8 µg/mL (≈ 17.1 µM). The MIC [19] was 16 µg/mL (≈ 34.3 µM), the MBC [20] was 8 µg/mL (≈ 17.1 µM) and the MBC [21] was 32 µg/mL (≈ 68.6 µM). The MIC [22] was 16 µg/mL (≈ 34.3 µM), the MBC [23] was 16 µg/mL (≈ 34.3 µM) and the MBC [24] was 16 µg/mL (≈ 34.3 µM). The MIC [25] was 16 µg/mL (≈ 34.3 µM), the Activity [26] was “Non-Toxic” and the MBC [27] was 32 µg/mL (≈ 68.6 µM). For the same molecule, the MBC [28] was 16 µg/mL (≈ 34.3 µM).
In the case of CCCCCCCCOc1ccc(-c2nc(C)c(-c3ccnc(NC(=N)N4CCOCC4)n3)s2)cc1, the MIC [1] is reported as 6.25 µg/mL (≈ 12.3 µM).
For CCCCCCCCOc1ccc(-c2nc(C)c(-c3ccnc(NC(=N)NC)n3)s2)cc1, the MIC [1] was over 50 µg/mL.
Molecule CCCCCCCCOc1ccc(-c2nc(C)c(-c3ccnc(N)n3)s2)cc1 has an MIC [1] of over 50 µg/mL.
In the case of CCCCCCCOc1ccc(-c2nc(C)c(-c3ccnc(N)n3)s2)cc1, the MIC [1] is reported as over 50 µg/mL.
Work on CN[C@H](CC(C)C)C(=O)N[C@H]1C(=O)N[C@@H](CC(N)=O)C(=O)N[C@H]2C(=O)N[C@H]3C(=O)N[C@H](C(=O)N[C@H](C(=O)O)c4cc(O)cc(O)c4-c4cc3ccc4O)[C@H](O)c3ccc(c(Cl)c3)Oc3cc2cc(c3O[C@@H]2O[C@H](CO)[C@@H](O)[C@H](O)[C@H]2O[C@H]2C[C@](C)(N)[C@H](O)[C@H](C)O2)Oc2ccc(cc2Cl)[C@H]1O [VANCOMYCIN] yielded an MIC [2] of 16 µg/mL (≈ 11 µM), an MIC [4] of over 64 µg/mL and an MIC [8] of 1 µg/mL (≈ 0.69 µM). For the same molecule, the MIC [9] was 2 µg/mL (≈ 1.38 µM), the MBC [10] was over 64 µg/mL and the MBC [11] was over 64 µg/mL. For the same molecule, the MBC [12] was 1 µg/mL (≈ 0.69 µM), the MIC [13] was over 64 µg/mL and the MIC [1] was 1.56 µg/mL (≈ 1.08 µM). The MBC [15] was 1 µg/mL (≈ 0.69 µM), the MBC [16] was 1 µg/mL (≈ 0.69 µM) and the MIC [19] was 2 µg/mL (≈ 1.38 µM). It also gave an MBC [20] of 2 µg/mL (≈ 1.38 µM), an MIC [22] of over 64 µg/mL and an MBC [23] of 1 µg/mL (≈ 0.69 µM). The MBC [24] was over 64 µg/mL, the MBC [27] was 64 µg/mL (≈ 44.2 µM) and the MBC [28] was 1 µg/mL (≈ 0.69 µM).
In the case of CCCCCCCOc1ccc(-c2nc(C)c(-c3ccnc(NC(=N)NC)n3)s2)cc1, the MIC [1] is reported as over 50 µg/mL.
Work on CCCCCCCCOc1ccc(-c2nc(C)c(-c3ccnc(NC(=N)N)n3)s2)cc1 yielded an MIC [1] of 1.56 µg/mL (≈ 3.56 µM).
